Results published in patent publication US8697690B2, “Isoindolone M1 receptor positive allosteric modulators” (Merck Sharp & Dohme Corp., priority 2010, dated 2014).

Molecular target: T1, acetylcholine muscarinic M1 receptor (Homo sapiens, UniProt P11229)
T1 construct: expressed in transfected cells; host or cells: CHOnfat cells (CHO with NFAT reporter background), Geneticin-selected
T1 sequence (P11229 1-460): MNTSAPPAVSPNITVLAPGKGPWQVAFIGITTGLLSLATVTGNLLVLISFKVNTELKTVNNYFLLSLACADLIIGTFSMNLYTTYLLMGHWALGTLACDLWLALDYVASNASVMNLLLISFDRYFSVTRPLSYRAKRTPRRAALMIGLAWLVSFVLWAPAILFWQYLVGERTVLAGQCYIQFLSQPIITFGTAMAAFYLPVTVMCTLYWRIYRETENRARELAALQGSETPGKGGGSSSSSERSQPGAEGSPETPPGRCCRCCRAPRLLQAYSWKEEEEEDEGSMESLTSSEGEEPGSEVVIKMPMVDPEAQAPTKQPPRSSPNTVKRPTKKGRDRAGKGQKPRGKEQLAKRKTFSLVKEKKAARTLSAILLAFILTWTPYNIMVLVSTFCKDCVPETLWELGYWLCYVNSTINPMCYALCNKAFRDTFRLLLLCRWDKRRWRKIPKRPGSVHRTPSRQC
Assay: muscarinic FLIPR assay: intracellular calcium in CHOnfat/hM1 cells, potentiation of EC20 acetylcholine
Assay type: cell-based
Conditions: IP = inflection point calculated from FLIPR values, 4 min preincubation, then EC20 acetylcholine (3 nM final)
Method: The assay studies the effect of one or several concentrations of test compounds on basal or acetylcholine-stimulated Ca^2+ levels using FLIPR.
Compounds are prepared and subjected to a preincubation period of 4 min. Thereafter, a single EC20 concentration of acetylcholine is added to each well (3 nM final). The intracellular Ca^2+ level of each sample is measured and compared to an acetylcholine control to determine any modulatory activity.
Cells: CHOnfat/hM1, hM2, hM3 or hM4 cells are plated 24 hr before the assay at a density of 18,000 cells/well (100 μL) in a 384 well plate. CHOnfat/hM1 and CHOnfat/hM3 Growth Medium: 90% DMEM (Hi Glucose); 10% HI FBS; 2 mM L-glutamine; 0.1 mM NEAA; Pen-Strep; and 1 mg/ml Geneticin, are added. For M2Gqi5CHOnfat and M4Gqi5CHOnfat cells, an additional 600 ug/ml hygromycin is added.
Equipment: 384 well plate, 120 μL addition plate; 96-well Whatman 2 ml Uniplate Incubator, 37° C., 5% CO2; Skatron EMBLA-384 Plate Washer; Multimek Pipetting System; Genesis Freedom 200 System; Mosquito System; Temo Nanoliter Pipetting System; and FLIPR^384 Fluorometric Imaging Plate Reader System are used.
Buffers. Assay Buffer: Hanks Balanced Salt Solution, with 20 mM Hepes, 2.5 mM Probenecid (Sigma P-8761) first dissolved in 1 N NaOH, 1% Bovine Serum Albumin (Sigma A-9647). Dye Loading Buffer: Assay Buffer plus 1% Fetal Bovine Serum and Fluo-4AM/Pluronic Acid Mixture. 2 mM Fluo-4AM ester stock in DMSO (Molecular Probes F-14202) Concentration of 2 μM in buffer for a final concentration of 1 μM in Assay. 20% Pluronic Acid Solution stock, with concentration of 0.04% in Buffer, 0.02% in Assay.
65 μL of 2 mM Fluo-4AM are mixed with 130 μL of 20% Pluronic Acid. The resulting solution and 650 μL FBS is added to the assay buffer for a total volume of 65 mL. Positive Controls: 4-Br-A23187: 10 mM in DMSO; final concentration […]. Acetylcholine: 10 mM in water, working stock at both 20 μM and 30 μM in assay buffer, final concentration of 10 μM. This is used to check the maximum stimulation of the CHOK1/hM1 cells. 20 μM (2×) acetylcholine is added in the preincubation part of the assay, and the 30 μM (3×) stock is added in the second part. (EC20)Acetylcholine: 10 mM in water, working stock of 9 nM (3×), and final concentration in assay is 3 nM. This is used after the preincubation with test compounds. Addition of the EC20 Acetylcholine to each well with a test compound will ascertain any modulator activity. 24 wells contain 3 nM Acetylcholine alone as a control.
Determining Activity of Putative Compounds:
Screening Plate Compounds are titrated in 96-well plates (columns 2-11), 100% DMSO, started at a concentration of 15 mM (150× stock concentration), and 3-fold serial dilutions using Genesis Freedom200 System. Four 96-well plates are combined into a 384-well plate using Mosquito Nanoliter Pipetting System by transferring 1 μl of serial diluted compounds to each well, and 1 mM acetylcholine (100× stock concentration) were added as a control. Using Temo, 49 μl assay buffer is added to each well of the 384-well plate right before assay.
In a 96-well Whatman 2 ml Uniplate, 9 nM Acetylcholine (3×) is pipetted into wells corresponding to the screening compounds, and into control wells. The 30 μM acetylcholine control (3×) is added into control wells, and the 3× agonist plate is transferred into a 384 well plate.
Cells are washed three times with 100 μL of buffer, leaving 30 μL of buffer in each well. Using Multimek, 30 μL of Dye Loading Buffer is added into each well and incubated at 37° C., 5% CO2 for up to one hr.
After 60 min, the cells are washed three times with 100 μL of buffer, leaving 30 μL of buffer in each well. The cell plate, screening plate, and agonist addition plates are placed on the platform in the FLIPR and the door closed. A signal test to check background fluorescence and basal fluorescence signal is performed. Laser intensity is adjusted if necessary. […]

Row | EC50 | SMILES
1 | 99 nM | CN(C)CCC1c2c(cc(Cc3ccc(Cl)nc3)c3cccnc23)C(=O)N1[C@H]1CCCC[C@@H]1O (stereo partly drawn) [Example 23, 5-[(6-Chloropyridin-3-yl)methyl]-9-[2-(dimethylamino)ethyl]-8-[(1S,2S)-2-hydroxycyclohexyl]-8,9-dihydro-7H-pyrrolo[3,4-h]quinolin-7-one]
2 | 7.4 nM | O=C1c2cc(Cc3ccc(Cl)nc3)c3cccnc3c2C(CCO)N1[C@H]1CCCC[C@@H]1O (stereo partly drawn) [Example 24, 5-[(6-Chloropyridin-3-yl)methyl]-8-[(1S,2S)-2-hydroxycyclohexyl]-9-(2-hydroxyethyl)-8,9-dihydro-7H-pyrrolo[3,4-h]quinolin-7-one]
3 | 10.5 nM | O=C1c2cc(Cc3ccc(C4CC4)nc3)c3cccnc3c2CN1[C@H]1CCCC[C@@H]1O [Example 25, 5-[(6-Cyclopropylpyridin-3-yl)methyl]-8-[(1S,2S)-2-hydroxycyclohexyl-8,9-dihydro-7H-pyrrolo 3,4-h]quinolin-7-one]
